From patent US8992977B2, “Multi-day delivery of biologically active substances” (Samos Pharmaceuticals, LLC, priority 2007, dated 2015)
Like-named read-outs stand apart in the source and are kept apart here.

How the values were obtained:
[1] = cited from earlier work
[2] = cited from earlier work; remark: listed apart in the source
[3] = cited from earlier work; for t1/2: carrier drug, as repeated in the examples
[4] = Hydrolysis of ethinyl estradiol (EE) from conjugate of Example 16; assay type: physicochemical; conditions: for Ethinyl Estradiol Released (%): 9:4 ethanol/0.05 M phosphate buffer pH 7.4, 37° C.
Description: Estradiol conjugate (33.5 mg, 0.039 mmol), prepared from Conjugate 1 as described in Example 16, was dissolved in 58 mL of a 9:4 ethanol/0.05 M aqueous phosphate buffer (pH 7.4) mixture, and the solution was shaken in a 37° C. incubator for 9 days. Six 8 mL aliquots were collected at 1-, 2-, 3-, 5-, 7-, and 9-day intervals. Estradiol release was quantified by adding 33 μL of a 0.09 M solution of butylated hydroxytoluene (BHT) in deuterochloroform as an internal standard, then comparing integrals of 1H NMR signals corresponding to the steroid and the internal standard.

[5] = cited from earlier work; for short half life from triacylglycerols (TAG) / following half life from triacylglycerols (TAG): bi-exponential pattern; for short half life from triacylglycerols (TAG): first phase; for following half life from triacylglycerols (TAG): second phase
[6] = Hydrolysis of ethinyl estradiol (EE) from conjugate 1; assay type: physicochemical; conditions: for Ethinyl Estradiol Released (%): 2:1 ethanol/0.05 M phosphate buffer pH 7.4, 37° C.
Description: Estradiol conjugate 1 (23.0 mg, 0.027 mmol) was dissolved in 48 mL of a 2:1 ethanol/0.05 M aqueous phosphate buffer (pH 7.4) mixture, and the solution was shaken in a 37° C. incubator for 6 days. Estradiol release was determined by integration of ^1H NMR signals obtained from three 8.5 mL aliquots, which were collected at 2-, 3-, and 6-day intervals.

[7] = Calculation of pharmacokinetic profile of orally delivered 3 1/2 day or 7 day pill; conditions: k 0.42
Excerpt: Since the release of EE is from a non-constant activity source, i.e., the concentration of the conjugate is continuously decreasing, the release of EE from the conjugate will obey a first order release and thus be proportional to the concentration of conjugate at any time t. These equations have been solved and the final equation describing the release of the EE is given by the equation Mt/M0=1−1/exp(kt), where Mt is the amount of EE released from the conjugate, M0 is the total amount of EE, Mt/M0 is the percent EE released from the conjugate, k is a proportionality constant and t is the time. The constant k was calculated from the data shown in example 17 to be 0.42. […] The pharmacokinetic profiles obtained using pills containing 150 (7 day pill) and 110 (3½ day pill) microgram equivalents of EE are shown in FIG. 1A and FIG. 1B.
As was shown in Example 18, the release from the EE conjugate is governed by the equation Mt/M0=1−1/exp(kt). The value of k was 0.42 as determined from the data of example 17. As discussed in the detailed description of illustrative embodiments, the release can be controlled by many different factors. To obtain half the release rate of EE as compared with that of conjugate of example 17, a value of k=0.22 was used. Using k=0.22 and the pharmacokinetic parameters shown in Example 18, the graphs shown in FIG. 2A and FIG. 2B were obtained. […]

[8] = cited from earlier work; remark: listed apart in the source
[9] = Table 1, alcohol moiety, 60% acetone, temperature 25
[10] = Table 1, alcohol moiety, 60% acetone, temperature 1
[11] = Table 2, acid moiety, 70% acetone, temperature 24.7
[12] = Table 2, acid moiety, water, temperature 24.7
[13] = Table 1, alcohol moiety, 70% acetone, temperature 24.7
[14] = The Pharmacological Basis of Therapeutics 10th ed., Physicians Desk Reference 58th Ed.
[15] = carotenoids, J. of Nutrition 2001, 131, 2096
[16] = Physicians Desk Reference p. 3372, 57 ed., 2003

Compound: CC(=O)OCc1ccc([N+](=O)[O-])cc1
- kOH [1, 9]: 0.269 M⁻¹ s⁻¹

Compound: CC(=O)Oc1ccc([N+](=O)[O-])cc1
- kOH [1, 10]: 2.2 M⁻¹ s⁻¹

Compound: CC(=O)Oc1cccc(C)c1
- kOH [1, 10]: 0.09 M⁻¹ s⁻¹

Compound: CC(C)=CCC\C(C)=C/C=C/C(C)=C/C=C/C(C)=C/C=C/C=C(C)/C=C/C=C(C)/C=C/C=C(\C)CCC=C(C)C [5-Z lycopene]
- half life ([2]; in vivo): 220 h

Compound: CCOC(=O)C(CC)CC [(C2H5)2CHCOOC2H5]
- kOH [1, 11]: 0.000083 M⁻¹ s⁻¹

Compound: CCOC(=O)C(C)(C)C [(CH3)3CCOOC2H5]
- kOH [1, 11]: 0.00022 M⁻¹ s⁻¹

Compound: CCOC(=O)C[N+](C)(C)C [(CH3)3N^+CH2COOC2H5]
- kOH [1, 12]: 98.0 M⁻¹ s⁻¹

Compound: CC(=O)OC[C@H]1O[C@@H]([S-])[C@H](OC(C)=O)[C@@H](OC(C)=O)[C@@H]1OC(C)=O.CCP(CC)CC.[Au+] [Auranofin]
- half life ([3]; in vivo): 408 to 600 h

Compound: CCCOC(C)=O [CH3COO(CH2)2CH3]
- kOH [1, 13]: 0.027 M⁻¹ s⁻¹

Compound: CCOC(C)=O [CH3COOC2H5]
- kOH [1, 13]: 0.047 M⁻¹ s⁻¹
- kOH [1, 11]: 0.047 M⁻¹ s⁻¹

Compound: CC(=O)Oc1ccccc1 [CH3COOC6H5]
- kOH [1, 9]: 0.537 M⁻¹ s⁻¹

Compound: CC(=O)OC(C)(C)C [CH3COOC(CH3)3]
- kOH [1, 13]: 0.00027 M⁻¹ s⁻¹

Compound: COC(C)=O [CH3COOCH3]
- kOH [1, 13]: 0.108 M⁻¹ s⁻¹

Compound: CC(=O)OC(C)C [CH3COOCH(CH3)2]
- kOH [1, 13]: 0.007 M⁻¹ s⁻¹

Compound: CCOC(=O)CSC [CH3SCH2COOC2H5]
- kOH [1, 12]: 0.92 M⁻¹ s⁻¹

Compound: CCOC(=O)C[S+](C)[O-] (stereo not drawn) [CH3SOCH2COOC2H5]
- kOH [1, 12]: 4.20 M⁻¹ s⁻¹

Compound: CCOC(=O)CCl [ClCH2COOC2H5]
- kOH ([1]; Table 2, acid moiety, Water, μ = 0.2, temperature 24.7): 33.2 M⁻¹ s⁻¹

Compound: C#C[C@]1(O)CC[C@H]2[C@@H]3CCc4cc(OC(=O)CCC(=O)OC(c5cc(C(F)(F)F)nc6c(C(F)(F)F)cccc56)C5CCCCN5)ccc4[C@H]3CC[C@@]21C (stereo partly drawn) [Conjugate of Example 16]
- rate of hydrolysis compared with Conjugate 1 [4]: slower than that of Conjugate 1
- Ethinyl Estradiol Released (%) ([4]; Day 1): 30%
- Ethinyl Estradiol Released (%) ([4]; Day 2): 50%
- Ethinyl Estradiol Released (%) ([4]; Day 3): 63%
- Ethinyl Estradiol Released (%) ([4]; Day 5): 77%
- Ethinyl Estradiol Released (%) ([4]; Day 7): 88%
- Ethinyl Estradiol Released (%) ([4]; Day 9): 98%

Compound: CC/C=C\C/C=C\C/C=C\C/C=C\C/C=C\C/C=C\CCC(=O)O [DHA, docosahexaenoic acid]
- short half life from triacylglycerols (TAG) [5]: less than a day
- following half life from triacylglycerols (TAG) [5]: several days

Compound: CC(C)=CCC/C(C)=C/C=C/C(C)=C/C=C/C(C)=C/C=C/C=C(C)/C=C/C=C(C)/C=C/C=C(\C)CCC=C(C)C [E lycopene]
- half life ([2]; in vivo): 120 h

Compound: CC/C=C\C/C=C\C/C=C\C/C=C\C/C=C\CCCC(=O)O [EPA, eicosapentaenoic acid]
- mean half life in cholesteryl esters (CE) ([5]; Br. J. Nutr. 1999): 78.5 h
- short half life from triacylglycerols (TAG) [5]: less than a day
- following half life from triacylglycerols (TAG) [5]: several days

Compound: CNCCC(Oc1ccc(C(F)(F)F)cc1)c1ccccc1 (stereo not drawn) [Fluoxetine]
- half life [3, 14]: 53 h
- t1/2 [3]: 53 h

Compound: CCOC(=O)CN [H3N^+CH2COOC2H5]
- kOH [1, 12]: 60.5 M⁻¹ s⁻¹

Compound: CCN(CCO)CCCC(C)Nc1ccnc2cc(Cl)ccc12 (stereo not drawn) [Hydroxychloroquine]
- half life [3, 14]: 1220 h

Compound: OC(c1cc(C(F)(F)F)nc2c(C(F)(F)F)cccc12)C1CCCCN1 (stereo not drawn) [Mefloquine]
- half life [3, 14]: 480 ± 96 h

Compound: COc1ccc2cc(CCC(C)=O)ccc2c1 [Nabumetone]
- half life [3, 14]: 23 h

Compound: CNCCC=C1c2ccccc2CCc2ccccc21 [Nortriptyline]
- half life [3, 14]: 31 h

Compound: CCC1(c2ccccc2)C(=O)NC(=O)NC1=O [Phenobarbital]
- half life [3, 14]: 99 h

Compound: O=c1[nH]c2ccccc2n1C1CCN(CCCC(c2ccc(F)cc2)c2ccc(F)cc2)CC1 [Pimozide]
- half life [3, 14]: 111 h

Compound: CNCCCC1c2ccccc2C=Cc2ccccc21 [Protriptyline]
- half life [3, 14]: 78 h
- t1/2 [3]: 76 h

Compound: CO[C@H]1C[C@@H]2CC[C@@H](C)[C@@](O)(O2)C(=O)C(=O)N2CCCC[C@H]2C(=O)O[C@H]([C@H](C)C[C@@H]2CC[C@@H](O)[C@H](OC)C2)CC(=O)[C@H](C)/C=C(\C)[C@@H](O)[C@@H](OC)C(=O)[C@H](C)C[C@H](C)/C=C/C=C/C=C/1C [Sirolimus]
- half life [3, 14]: 62 h
- t1/2 [3]: 62 h

Compound: CN(C)CCOc1ccc(/C(=C(/CCCl)c2ccccc2)c2ccccc2)cc1 [Toremifene]
- half life [3, 14]: 148 h

Compound: CC1=CCCC(C)(C)[C@H]1/C=C/C(C)=C/C=C/C(C)=C/C=C/C=C(C)/C=C/C=C(C)/C=C/C1=C(C)CCCC1(C)C [alpha carotene]
- half life [2, 15]: 1080 h

Compound: CC1=C(/C=C/C(C)=C/C=C/C(C)=C/C=C/C=C(C)/C=C/C=C(C)/C=C/C2=C(C)CCCC2(C)C)C(C)(C)CCC1 [beta carotene]
- half life [2, 15]: 888 h

Compound: CC1=C(/C=C/C(C)=C/C=C/C(C)=C/C=C/C=C(C)/C=C/C=C(C)/C=C/C2=C(C)C[C@@H](O)CC2(C)C)C(C)(C)CCC1 [beta cryptoxanthin]
- half life [2, 15]: 936 h

Compound: C#C[C@]1(O)CC[C@H]2[C@@H]3CCc4cc(OC(=O)CCC(=O)OC(c5cc(C(F)(F)F)nc6c(C(F)(F)F)cccc56)C5CCCCN5C(=O)OC(C)(C)C)ccc4[C@H]3CC[C@@]21C (stereo partly drawn) [conjugate 1]
- period over which ethinyl estradiol is released ([6]; 2:1 ethanol/phosphate buffer pH 7.4, 37° C.): over a several day period
- Ethinyl Estradiol Released (%) ([6]; Day 2): 57%
- Ethinyl Estradiol Released (%) ([6]; Day 3): 67%
- Ethinyl Estradiol Released (%) ([6]; Day 6): 100%
- proportionality constant k of first order release Mt/M0=1−1/exp(kt) ([6]; calculated from the data of example 17): 0.42
- peak to valley ratio ([7]; 1 pill every 7 days, 150 microgram equivalents of EE): 5.1
- peak to valley ratio (Css.max to Css.min) ([7]; pill once every 3½ days, 110 microgram equivalents of EE): less than two

Compound: C#C[C@]1(O)CC[C@H]2[C@@H]3CCc4cc(O)ccc4[C@H]3CC[C@@]21C [ethinyl estradiol]
- CL/F [8, 16]: 8.1 mL/min/kg
- half life [8, 16]: 18.7 h

Compound: C#C[C@]1(O)CC[C@H]2[C@@H]3CCC4=CC(=O)CC[C@@H]4[C@H]3CC[C@@]21CC [levonorgestrel]
- plasma concentrations ([8]; ovulation suppression use): about 1 microgram per ml

Compound: CCCCC/C=C\C/C=C\CCCCCCCC(=O)O [linoleic acid]
- t1/2 ([5]; essential fatty acids as drug carriers): 24 h

Compound: CC1=C[C@H](O)CC(C)(C)[C@H]1/C=C/C(C)=C/C=C/C(C)=C/C=C/C=C(C)/C=C/C=C(C)/C=C/C1=C(C)C[C@@H](O)CC1(C)C [lutein]
- half life [2, 15]: 1820 h

Compound: CC(C)=CCC/C(C)=C/C=C/C(C)=C/C=C/C(C)=C/C=C/C=C(C)/C=C/C=C(C)/C=C/C=C(\C)CCC=C(C)C [lycopene]
- half life [2, 15]: 624 h

Compound: CCCC(=O)OCC [nC3H7COOC2H5]
- kOH [1, 11]: 0.088 M⁻¹ s⁻¹

Compound: CC1=C(/C=C/C(C)=C/C=C/C(C)=C/C=C/C=C(C)/C=C/C=C(C)/C=C/C2=C(C)CC(O)CC2(C)C)C(C)(C)CC(O)C1 (stereo not drawn) [zeaxanthin]
- half life [2, 15]: 912 h

Compound: Gold sodium thiomalate
- half life [3, 14]: 600 h

Compound: Infliximab
- half life ([3]; in vivo): 228 h

Compound: Ivermectin
- half life [3, 14]: 57 h
